Measured values: paper PMC7746742, “The novel rexinoid MSU-42011 is effective for the treatment of preclinical Kras-driven lung cancer” (Scientific Reports, 2020)

Experiments:
[1] = Plasma triglycerides in MMTV-neu mice fed rexinoids; type: in vivo; conditions: MMTV-neu mice fed rexinoids for 10 days, n=5-6 mice/group
Description: fold expression triglyceride
Supplemental Fig 1. Correlation of SREPB mRNA expression and triglyceride levels. HepG2 human liver cells were treated with 300 nM of rexinoids for 8 hr,and lysates analyzed by RT-PCR. Triglycerides in plasma from MMTV-neu mice fed rexinoids for10 days were measured using a commercial kit(Abcam). *, p <0.01 vs control; **, p<0.05 vs bex and LG268; n=5-6 mice/group.

[2] = Steady state drug levels in plasma after 12 weeks on diet (HPLC-MS); type: in vivo, A/J mice; conditions: A/J, mouse, oral, 100 mg/kg diet for 12 weeks, LC-MS, n = 8, mean ± SE
Description: Blood was collected via cardiac puncture into 1 ml lithium heparin tubes (Greiner Bio-one). Blood was centrifuged at 5000 g for 5 min at 4 °C. Plasma was separated and frozen at − 80 °C until processed as described. Acetonitrile was added to precipitate plasma proteins. Samples were centrifuged at 14,000 g for 5 min, and the supernatant was filtered with a 0.2 µm syringe filter. Each sample was dried overnight and reconstituted in 200 µl of 50:50 methanol:water solution for analysis via HPLC. HPLC was performed on a Quatro Premier instrument with an Ascentis Express C18 column and an Acquity UPLC system. The mobile phase A consisted of 10 mM aq. ammonium acetate and the mobile phase B consisted of methanol. The following gradient was applied 99–5% A (0–4 min), 5% A (4–5.1 min), 5–99% A (5.1–6 min). The flow rate was 0.3 ml/minute, and bexarotene and MSU-42011 were detected at ~ 4.5 min. A standard curve was prepared by processing plasma from untreated animals and spiking the samples with 0.1–3 μM of the appropriate rexinoid then reconstituting the samples.

SREBP = SREBP mRNA expression assay in HepG2 cells (RT-PCR); type: cell-based, human; conditions: Homo sapiens, HepG2, 8 h, HepG2 cells, 300 nM rexinoids, 8 h, SREBP mRNA by RT-PCR; mean ± SD of 3 experiments; read-out: SREBP activation Fold induction vs. Control
Description: The goals of our structure–activity relationship (SAR) studies were to explore and discover new scaffolds that not only bind to RXR but also are able to independently modulate both iNOS and SREBP activity in accordance with a previously described screening paradigm. To characterize the effect of the novel rexinoids on SREBP elevation in vitro, HepG2 cells were treated with 300 nM rexinoids for 8 h and SREBP mRNA levels were measured by RT-PCR. SREBP expression ranged from no change to a 4.6-fold induction compared to the vehicle control when treated with the novel compounds. […] Analogs MSU- 41402, 41582, 41407, 41566, 41844, 41845, 42011, and 42166 induced an SREPB mRNA fold expression change of 1–1.5 normalized to a vehicle control, while bexarotene induced an mRNA fold expression change of > 2 (Table 1).
HepG2 were plated in 6-well plates (1 × 10^6 cells/well) and, after allowing the cells to attach overnight, were treated with 300 nM rexinoids and/or varying concentrations of T0901317 (TOCRIS # 2373), GSK 2033 (TOCRIS # 5694), HX 531 (TOCRIS # 3912) for 8 h. Total RNA was isolated with TRIzol (Invitrogen, Carlsbad, CA) and 2 µg RNA was used to synthesize cDNA using the SuperScript III reverse transcriptase kit (Invitrogen, Carlsbad, CA). Primers (IDT) for SREBP (F: 5′-GCCGGTTGATAGGCAGCTT-3′; R: 5′-GGTGAGTGGCGGAACCATT-3′) and GAPDH (F: 5′-[…]-3′; R: 5′-[…]-3′), the SYBR Green Supermix (Bio-rad Laboratories, Hercules, CA) and the QuantStudio 7 Flex Real-Time PCR system (95 °C for 20 s followed by 40 cycles of 95 °C for 15 s and 60 °C for 1 min were used to detect mRNA expression. Relative SREBP/GAPDH gene expression was calculated by the delta-delta Ct method. To evaluate protein expression by western blotting, HepG2 cells were plated as above and treated with 300 nM of rexinoids for 24 h. Cells were harvested and lysed in RIPA buffer (1 M Tris–Cl, 5 M NaCl, pH 7.4, 0.5 M EDTA, 25 mM sodium deoxycholate, 1% triton-X, 0.1% SDS, 0.0125% aprotinin) with protease inhibitors (1% PMSF/0.5% apoprotein/0.1%leupeptin). Protein concentration was measured using a BCA assay (Sigma-Aldrich). Proteins (10 µg/well) were separated in 10% SDS-PAGE gels and transferred to nitrocellulose membranes. Membranes were incubated with SREBP (Active Motif; 1:1000) and GAPDH (Santa Cruz Biotechnology; 1:8000) primary antibodies followed by anti-rabbit secondary antibodies conjugated to horseradish peroxidase (Cell Signaling). Signal was detected using the ECL Western Blotting Substrate (GE Healthcare), and protein levels quantified using ImageJ.

[3] = Lipid levels in plasma (triglyceride and cholesterol kits); type: in vivo, A/J mice; conditions: 100 mg/kg diet for 12 weeks, n = 8, mean ± SE
Description: Triglyceride and cholesterol levels in plasma (n = 8 mice/group) harvested at necropsy were measured using the Triglyceride Quantification Assay Kit (Abcam) or the Cholesterol Quantification Kit (Sigma-Aldrich), respectively, using the recommended protocol supplied by the manufacturer.

iNOS = iNOS inhibition assay (LPS-induced NO production, Griess reaction); type: cell-based, murine; conditions: Mus musculus; RAW264.7 cells, 0–1000 nM rexinoids, LPS 1 ng/ml 24 h, NO by Griess assay; mean ± SE of 3 experiments; read-out: iNOS suppression IC50
Description: To evaluate the anti-inflammatory effects of the novel rexinoids, we utilized the iNOS suppression assay. Inhibition of iNOS in vitro directly correlates with efficacy in our preclinical model of Kras-driven lung cancer. RAW264.7 macrophage-like cells were treated with 0–1 μM rexinoids and stimulated with 1 ng/mL lipopolysaccharide for 24 h, and then NO was measured in the media.
RAW264.7 cells were plated in 96-well plates (20,000 cells/well). After overnight attachment, cells were treated with twofold serial dilutions (0–1000 nM) of rexinoids. After a 20 min incubation at 37 °C, cells were stimulated with 1 ng/mL LPS for 24 h. NO production was measured in culture medium using the Griess reaction. IC50 values were calculated using GraphPad Prism 8.1.2 software for Windows using a log([nM drug concentration]) vs. response curve fit.

With `C=C(c1ccc(C(=O)O)cc1)c1cc2c(cc1C)C(C)(C)CCC2(C)C` [Bexarotene] the “Plasma triglyceride levels in mice” value [1] was 2.38 ± 0.3 nmol/µL, the concentration at 12 weeks [2] was 81.2 ± 14.9 nM and the fold induction at 0.3 µM (SREBP) was > 2. The Cholesterol in plasma [3] was 1.99 ± 0.1ǂ µg/µL, the Triglycerides in plasma [3] was 2.21 ± 0.16ǂ nmol/µL and the Cholesterol in plasma ([3]; listed as bexarotene) was 1.99 ± 0.1 µg/µL. The Triglycerides in plasma ([3]; listed as bexarotene) was 2.21 ± 0.16 nmol/µL and the IC50 (iNOS) was 0.143 ± 0.019 µM.
